These results are taken from ChEMBL document CHEMBL2424577, “Cytotoxicity and DNA-binding property of water-soluble naphthalene diimide derivatives bearing 2-oligoethoxy ethanamine side chain end-labeled with tertiary amino groups” (Med Chem Res, 2013).

Test [1] has as its system A549. Put plainly: Antiproliferative activity against human A549 cells after 48 hrs by MTT assay. Format: functional, cell-based. The settings on record: A549, 48 h.
The test system of test [2] is HeLa. Put plainly: Antiproliferative activity against human HeLa cells after 48 hrs by MTT assay. It is filed as functional, cell-based.
Test [3] relates to K562. The test can be described thus: Antiproliferative activity against human K562 cells after 48 hrs by MTT assay. Particulars: K562, 48 h. Format: functional, cell-based.
Test [4] in a line: Binding affinity to G-quadruplex DNA (unknown origin) in phosphate buffer at pH 7.4 at 2 x 10 '-5 M by CD spectra analysis.
Test [5] has as its system DNA. Put plainly: Binding affinity to calf thymus DNA in phosphate buffer at pH 7.4 at 2 x 10 '-5 M by CD spectra analysis. Particulars: Bos taurus. It is filed as nucleic-acid assay.
Test [6] in a line: Binding affinity to G-quadruplex DNA (unknown origin) in phosphate buffer at pH 7.4 at 5 x 10 '-5 M by fluorescence spectroscopy.
Test [7] deals with DNA. The test can be described thus: Binding affinity to calf thymus DNA in phosphate buffer at pH 7.4 at 5 x 10 '-5 M by fluorescence spectroscopy. Format: nucleic-acid assay. The settings on record: Bos taurus.
The nature of test [8]: Binding affinity to G-quadruplex DNA (unknown origin) in phosphate buffer at pH 7.4 assessed as hypochromicity at 5 x 10 '-5 M by Uv-Vis spectroscopy.
Test [9] relates to DNA. The test can be described thus: Binding affinity to calf thymus DNA in phosphate buffer at pH 7.4 assessed as hypochromicity at 5 x 10 '-5 M by Uv-Vis spectroscopy. The settings on record: Bos taurus. Format: nucleic-acid assay.
Test [10] can be described thus: Binding affinity to G-quadruplex DNA (unknown origin) in phosphate buffer at pH 7.4 at 5 x 10 '-5 M by Uv-Vis spectroscopy.
Test [11] relates to DNA. The test can be described thus: Binding affinity to calf thymus DNA in phosphate buffer at pH 7.4 at 5 x 10 '-5 M by Uv-Vis spectroscopy. Format: nucleic-acid assay. The settings on record: Bos taurus.

The source made the active and inactive calls. The rule behind the calls is not given here.

Turning to `CN(C)CCN1C(=O)c2ccc3c4c(c(NCCOCCN5CCCCC5)cc(c24)C1=O)C(=O)N(CCN(C)C)C3=O`, the IC50 in test [1] turned out to be 2190 nM; in test [2] it was 2080 nM; in test [3], 610 nM.
On to `CN(C)CCN1C(=O)c2ccc3c4c(c(NCCOCCN5CCN(C)CC5)cc(c24)C1=O)C(=O)N(CCN(C)C)C3=O`, for which the IC50 in [1] turned out to be 2940 nM; in [2] it was 5190 nM; in test [3], 3030 nM.
Consider `CN(C)CCN1C(=O)c2ccc3c4c(c(NCCOCCOCCOCCN5CCN(C)CC5)cc(c24)C1=O)C(=O)N(CCN(C)C)C3=O`, for which the 50% inhibitory concentration (IC50) in test [1] was determined as 7420 nM; in [2], 2880 nM; in test [3] it was 3630 nM.
As to `CN(C)CCN1C(=O)c2ccc3c4c(c(NCCOCCOCCN5CCCC5)cc(c24)C1=O)C(=O)N(CCN(C)C)C3=O`, the IC50 in test [1] is 2910 nM; in [2], 5000 nM; in [3], 2520 nM.
As for `CN(C)CCN1C(=O)c2ccc3c4c(c(NCCOCCOCCOCCN5CCOCC5)cc(c24)C1=O)C(=O)N(CCN(C)C)C3=O`, the outcome in test [4] and in test [5] was Active. For the same molecule, the K was 1.5 ×10⁴ /M in test [6] and 3.8 ×10⁵ /M in test [7]. For the same molecule, the Activity was determined as 9% in [8] and 25% in test [9]. Besides, the Kb came to 1.5 ×10⁴ /M in [10] and 2.3 ×10⁵ /M in test [11]. Further, the figures for the 50% inhibitory concentration (IC50) in [1], in test [2] and in [3] were 2530 nM, 3800 nM and 5790 nM, respectively.
Take `CN(C)CCN1C(=O)c2ccc3c4c(c(NCCOCCOCCOCCN5CCCC5)cc(c24)C1=O)C(=O)N(CCN(C)C)C3=O`: the concentration for half-maximal inhibition (IC50) is 7120 nM in [1], 5170 nM in [2] and 7100 nM in [3].
The like results for `CN(C)CCN1C(=O)c2ccc3c4c(c(NCCOCCOCCN5CCCCC5)cc(c24)C1=O)C(=O)N(CCN(C)C)C3=O` were, in that order, 2930 nM, 5950 nM and 1240 nM.
Regarding `CN(C)CCN1C(=O)c2ccc3c4c(c(NCCOCCN5CCOCC5)cc(c24)C1=O)C(=O)N(CCN(C)C)C3=O`, the outcome in [4] and in test [5] was Active. Further, the K in test [6] was 6.8 ×10⁵ /M; in test [7], 3.9 ×10⁶ /M. The Activity in test [8] came to 13%; in test [9] it was 31%. In addition, the figures for the Kb in [10] and in [11] were 2.8 ×10⁵ /M and 2.1 ×10⁶ /M, respectively. Moreover, the IC50 in test [1] turned out to be 2950 nM; in test [2], 2610 nM; in test [3] it was 670 nM.
As for `CN(C)CCN1C(=O)c2ccc3c4c(c(NCCOCCOCCN5CCN(C)CC5)cc(c24)C1=O)C(=O)N(CCN(C)C)C3=O`, the IC50 is 6870 nM in test [1], 9800 nM in test [2] and 2780 nM in [3].
For `CN(C)CCN1C(=O)c2ccc3c4c(c(NCCOCCOCCOCCN5CCCCC5)cc(c24)C1=O)C(=O)N(CCN(C)C)C3=O`, the IC50 in test [1] stood at 6870 nM; in test [2], 4060 nM; in test [3], 2940 nM.
As for `CN(C)CCN1C(=O)c2ccc3c4c(c(NCCOCCOCCN5CCOCC5)cc(c24)C1=O)C(=O)N(CCN(C)C)C3=O`, the outcome in test [4] and in test [5] was Active. Further, the K amounted to 2.3 ×10⁴ /M in test [6] and 5.4 ×10⁵ /M in test [7]. The Activity in test [8] was determined as 11%; in test [9] it was 28%. Besides, the Kb came to 4.8 ×10⁴ /M in test [10] and 4.5 ×10⁵ /M in [11]. Besides, the values for the IC50 in [1], in test [2] and in test [3] were 2830 nM, 5930 nM and 1480 nM, respectively.
As for `CN(C)CCN1C(=O)c2ccc3c4c(c(NCCOCCN5CCCC5)cc(c24)C1=O)C(=O)N(CCN(C)C)C3=O`, the IC50 in [1] stood at 2030 nM; in test [2] it was 2150 nM; in [3], 590 nM.
